Data set [1] concerns hiPSC-CMs. In words: Optical measurement of action potential duration (APD90) in hiPSC-CMs using voltage-sensitive dye di-4-ANEPPS. The conditions noted are these: for activity at 0.01 µM / activity at 0.1 µM / activity at 0.3 µM / activity at 1 µM / EC (50% APD prolongation): Homo sapiens; for activity at 0.01 µM / activity at 0.1 µM / activity at 0.3 µM / activity at 1 µM: 0.5 h, read-out: Changes in APD90 in hiPSC-CMs; for EC (50% APD prolongation): read-out: D150 (concentration that prolongs the AP by 50%), APD90 in hiPSC-CMs. The procedure:
The plates were then incubated at 37°C, 5% CO2. Forty‐eight hours post‐thaw, 100% of the plating medium was replaced with CDI Maintenance Medium (CDI, CMC‐100‐120‐001), and further, 100% media changes were performed every 2 days after that.
Afterwards, the medium containing VSD was replaced by fresh serum‐free medium, and the cells were returned to the incubator. The multi‐well plate was placed in an environmentally controlled stage incubator (37°C, 5% CO2, water‐saturated air atmosphere) (Okolab Inc, Burlingame, CA, USA) of the CelIOPTIQ platform (Clyde Biosciences Ltd, Glasgow, Scotland). The di‐4‐ANEPPS fluorescence signal was recorded from a 0.2 × 0.2 mm area using a 40× (NA 0.6) objective lens. Excitation wavelength was 470 ± 10 nm using a light‐emitting diode (LED), and emitted light was collected by two photomultipliers (PMTs) at 510–560 and 590–650 nm respectively. LED, PMT, associated power supplies and amplifiers were supplied by Cairn Research Ltd (Kent, UK). […] A 20 s recording was then taken 30 min after exposure to the drug or vehicle with only one concentration applied per well. The records were subsequently analysed offline using proprietary software (CellOPTIQ). The procedure was repeated from four to five times, and parallel matched control (vehicle) measurements were taken on cardiomyocytes with equivalent concentrations of vehicle (DMSO). AP parameters were measured, including APD at 50, 75 and 90% repolarization (APD50, APD75 and APD90 respectively). Data are given as % change from control for the treated groups (vehicle, control and drug). This allowed a single comparison to be made at each concentration, and every experiment was performed with its own set of controls (vehicle). No data were used more than once.

In data set [2] the target is hERG channels (Homo sapiens, UniProt Q12809). In words: hERG current inhibition, automated planar patch clamp in HEK293 cells stably expressing hERG. As for the experimental part:
(§1) Currents were low‐pass filtered at 10 kHz using the internal Bessel filter and sampled at 25 kHz. The extracellular solution for hERG current recording contained 140 mM NaCl, 4 mM KCl, 2 mM CaCl2, 1 mM MgCl2,5 mM D‐glucose and 10 mM HEPES (pH 7.4) (Sigma‐Aldrich). The intracellular solution for hERG current recording contained 50 mM KCl, 10 mM NaCl, 60 mM KF, 20 mM EGTA and 10 mM HEPES (pH 7.2). The extracellular solution for measuring sodium currents in HEK cells stably expressing the human clone of Nav1.5 (GenBank M77235) contained 4 mM KCl, 20 mM NaCl, 1.8 mM CaCl2, 0.75 mM MgCl2, 5 mM HEPES, 120 mM choline chloride and pH 7.4 using NaOH. The intracellular solution for sodium current recording contained 120 mM CsF, 20 mM CsCl, 5 mM EGTA, 5 mM HEPES and pH 7.4 using CsOH. All chemicals were obtained from Sigma‐Aldrich Chemie GmbH (Taufkirchen, Germany). The compound solutions were applied by means of the automated NPC‐16 Patchliner planar patch‐clamp platform.
Data are presented as mean ± SEM for at least five cells from two different batches or for three independent measurements with HEK293 cells.
The concentration–inhibition relationships were analysed by plotting the normalized values of peak tail current versus peak tail steady current in the presence of the respective cumulatively applied compound concentrations (Figure 4B, C). Data points were fitted using Hill equation.

Data set [3] has as its target Cav1.2 (rabbit α1-subunit with β2a and α2-δ1) (Oryctolagus cuniculus, UniProt P15381). Nature of the data set: Barium current (IBa) inhibition through Cav1.2 in transfected tsA-201 cells, manual patch clamp. The settings on record: rabbit. As for the experimental part:
(§2) The transfection of tsA‐201 cells was performed using the FUGENE6 Transfection Reagent (Roche Diagonstics GmbH, Mannheim, Germany) following standard protocols. The tsA‐201 cells were used until passage number 15. […] The extracellular bath solution (in mM: BaCl2 20, MgCl2 1, HEPES 10, choline‐Cl 90) was titrated to pH 7.4 with methanesulfonic acid. […] The drugs were applied to cells under voltage clamp using a microminifold perfusion system. Ca^2+ channel block was estimated as peak IBa inhibition during a train of short (50 ms) test pulses from −80 mV at a frequency of 0.2 Hz. Patch clamp experiments to study hERG, Nav1.5 and Cav1.2 currents were performed at room temperature (22–25°C). All data were digitized and saved to disc. Current traces were filtered at 5 kHz and sampled at 10 kHz. The pClamp software package (Version 7.0 Axon Instruments, Inc.) was used for data acquisition and preliminary analysis. Microcal Origin 7.0 was used for analysis, and sigmoidal curves were fitted using the Hill equation.
(§3) Use‐dependent channel inhibition was studied during trains of 1 Hz and 50 ms test pulses (from −80 to +10 mV). After the application of 20 test pulses in control (absence of drug), the cells were incubated for 3 min with drug at rest. Peak current inhibition during the first pulse (1st, Figure 6C) in the presence of the drug reflects ‘resting state’ block. Additional current inhibition during a subsequently applied pulse train illustrates use‐dependent block. Peak current inhibition in control and drug are compared in Figure 6D.
(The patch-clamp technique gives a direct electrical read-out from membranes.)

In data set [4] the target is rabbit CaV1.2 α1-subunit with β2a and α2-δ1 (Oryctolagus cuniculus, UniProt P15381). Described as above. The conditions noted are these: for Peak current decay after 20 pulses at 1 Hz (use-dependent block): 50 ms pulses from -80 to +10 mV, control 12 ± 2%; for Resting state and use-dependent block of Cav1.2: 1 Hz trains of 50 ms pulses after 3 min incubation at rest; for Cav1.2 IC50 (peak IBa inhibition): rabbit, pH 7.4. As for the experimental part:
as §2, §3

The target in data set [5] is Nav1.5 (Homo sapiens, UniProt Q14524). Nature of the data set: Sodium current inhibition in HEK cells stably expressing Nav1.5, planar patch clamp. The conditions noted are these: for Shift of Nav1.5 concentration-response curve towards lower concentrations: -80 mV versus -140 mV holding potential. As for the experimental part: as §1
Data set [6] deals with hERG potassium channels. The settings on record: read-out: Ki binding studies; radioligand binding; ref Shagufta et al 2009; cited from earlier work.
Setting [7] is: Nav1.5 IC50 (peak INa inhibition), holding potential -80 mV.
Where [8] appears, read: Nav1.5 IC50 (peak INa inhibition), holding potential -140 mV, 0.2 Hz.
Where [9] appears, read: pH 7.4, Cav1.2 IC50 (peak IBa inhibition).

Several values for one entry are separate records, joined by “and”; a condition that tells them apart may be missing. Equal values may be shown once. Entries after “also recorded” stand apart in the source; their conditions may differ.

Chain of Cav1.2 (rabbit α1-subunit with β2a and α2-δ1) (P15381 whole entry, other chains not shown, the tested form may be a part): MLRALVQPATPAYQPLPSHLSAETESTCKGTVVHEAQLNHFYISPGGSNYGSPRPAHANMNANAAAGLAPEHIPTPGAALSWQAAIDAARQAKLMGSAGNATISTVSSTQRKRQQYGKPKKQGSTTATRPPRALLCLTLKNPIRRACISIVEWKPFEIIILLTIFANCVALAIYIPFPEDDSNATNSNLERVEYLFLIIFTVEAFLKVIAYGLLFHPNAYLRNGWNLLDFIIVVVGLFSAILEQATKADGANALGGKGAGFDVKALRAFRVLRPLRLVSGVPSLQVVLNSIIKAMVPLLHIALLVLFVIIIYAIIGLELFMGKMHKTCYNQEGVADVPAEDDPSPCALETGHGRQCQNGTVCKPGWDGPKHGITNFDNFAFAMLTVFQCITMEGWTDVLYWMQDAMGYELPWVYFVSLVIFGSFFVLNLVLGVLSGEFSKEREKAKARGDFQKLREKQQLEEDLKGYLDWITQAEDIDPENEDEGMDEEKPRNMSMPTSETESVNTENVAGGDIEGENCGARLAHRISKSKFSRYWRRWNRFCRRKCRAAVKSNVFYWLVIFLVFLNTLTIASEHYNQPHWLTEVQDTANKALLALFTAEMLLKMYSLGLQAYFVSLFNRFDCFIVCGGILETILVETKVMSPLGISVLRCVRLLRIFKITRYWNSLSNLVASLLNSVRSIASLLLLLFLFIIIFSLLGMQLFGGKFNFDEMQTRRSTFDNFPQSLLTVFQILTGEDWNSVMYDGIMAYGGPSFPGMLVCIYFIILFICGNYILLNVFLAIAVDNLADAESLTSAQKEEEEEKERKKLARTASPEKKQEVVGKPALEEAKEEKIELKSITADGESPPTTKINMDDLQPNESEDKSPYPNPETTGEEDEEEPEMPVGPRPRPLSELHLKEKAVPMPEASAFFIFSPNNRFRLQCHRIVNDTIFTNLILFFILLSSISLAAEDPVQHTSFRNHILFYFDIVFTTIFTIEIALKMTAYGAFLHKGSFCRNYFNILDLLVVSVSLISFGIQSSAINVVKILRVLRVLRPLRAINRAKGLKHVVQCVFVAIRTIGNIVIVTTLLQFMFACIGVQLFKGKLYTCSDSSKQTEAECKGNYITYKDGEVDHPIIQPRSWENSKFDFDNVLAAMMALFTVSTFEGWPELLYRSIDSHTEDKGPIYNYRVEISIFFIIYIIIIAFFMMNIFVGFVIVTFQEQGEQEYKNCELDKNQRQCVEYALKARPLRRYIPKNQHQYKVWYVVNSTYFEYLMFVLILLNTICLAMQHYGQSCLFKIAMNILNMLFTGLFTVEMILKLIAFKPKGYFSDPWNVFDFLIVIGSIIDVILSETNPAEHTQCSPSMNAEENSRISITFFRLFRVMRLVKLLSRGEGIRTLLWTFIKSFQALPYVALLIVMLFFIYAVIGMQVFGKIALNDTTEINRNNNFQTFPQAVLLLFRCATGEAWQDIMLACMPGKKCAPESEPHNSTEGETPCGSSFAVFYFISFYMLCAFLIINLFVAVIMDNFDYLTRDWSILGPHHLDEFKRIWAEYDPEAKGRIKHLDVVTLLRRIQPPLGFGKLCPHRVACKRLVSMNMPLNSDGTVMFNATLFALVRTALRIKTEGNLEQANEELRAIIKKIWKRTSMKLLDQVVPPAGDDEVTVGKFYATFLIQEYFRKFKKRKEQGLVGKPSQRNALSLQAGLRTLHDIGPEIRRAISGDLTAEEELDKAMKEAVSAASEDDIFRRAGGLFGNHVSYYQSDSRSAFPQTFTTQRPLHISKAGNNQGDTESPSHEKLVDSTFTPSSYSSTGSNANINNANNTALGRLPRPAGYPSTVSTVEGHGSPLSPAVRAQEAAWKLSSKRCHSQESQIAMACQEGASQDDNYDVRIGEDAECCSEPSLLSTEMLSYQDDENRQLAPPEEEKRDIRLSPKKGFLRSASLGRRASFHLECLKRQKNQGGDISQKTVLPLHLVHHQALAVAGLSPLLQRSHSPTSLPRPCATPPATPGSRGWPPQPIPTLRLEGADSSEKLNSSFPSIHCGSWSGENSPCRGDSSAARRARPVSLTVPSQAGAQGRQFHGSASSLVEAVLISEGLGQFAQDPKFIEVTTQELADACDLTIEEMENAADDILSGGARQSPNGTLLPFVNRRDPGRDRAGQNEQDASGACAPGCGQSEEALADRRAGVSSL
Chain of Cav1.2 (rabbit α1-subunit with β2a and α2-δ1) (P13806 27-960 partner limits assumed, other chains not shown): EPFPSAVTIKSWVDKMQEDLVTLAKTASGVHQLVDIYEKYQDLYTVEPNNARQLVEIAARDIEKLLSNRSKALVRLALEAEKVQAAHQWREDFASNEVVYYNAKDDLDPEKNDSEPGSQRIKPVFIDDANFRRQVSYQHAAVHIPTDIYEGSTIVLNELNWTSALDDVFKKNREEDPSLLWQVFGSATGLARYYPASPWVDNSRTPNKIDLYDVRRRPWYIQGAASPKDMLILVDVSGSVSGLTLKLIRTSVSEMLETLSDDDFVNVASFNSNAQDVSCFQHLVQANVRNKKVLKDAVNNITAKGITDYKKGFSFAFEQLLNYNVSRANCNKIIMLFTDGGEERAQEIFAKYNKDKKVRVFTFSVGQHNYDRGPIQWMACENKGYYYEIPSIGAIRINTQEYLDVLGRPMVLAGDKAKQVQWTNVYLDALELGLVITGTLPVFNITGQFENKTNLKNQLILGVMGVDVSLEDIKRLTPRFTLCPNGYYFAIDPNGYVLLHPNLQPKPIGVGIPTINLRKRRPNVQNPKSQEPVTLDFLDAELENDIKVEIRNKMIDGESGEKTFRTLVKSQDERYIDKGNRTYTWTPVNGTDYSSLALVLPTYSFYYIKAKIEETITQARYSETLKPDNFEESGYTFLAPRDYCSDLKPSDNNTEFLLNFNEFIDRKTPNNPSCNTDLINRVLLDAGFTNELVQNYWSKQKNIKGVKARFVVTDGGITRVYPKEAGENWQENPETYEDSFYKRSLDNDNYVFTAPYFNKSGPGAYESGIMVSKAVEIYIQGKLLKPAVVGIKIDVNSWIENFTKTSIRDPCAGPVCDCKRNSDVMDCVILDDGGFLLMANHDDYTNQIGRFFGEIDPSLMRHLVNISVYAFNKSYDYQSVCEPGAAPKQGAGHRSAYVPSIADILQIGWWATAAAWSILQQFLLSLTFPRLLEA
Chain of Cav1.2 (rabbit α1-subunit with β2a and α2-δ1) (P13806 961-1106 partner limits assumed, other chains not shown): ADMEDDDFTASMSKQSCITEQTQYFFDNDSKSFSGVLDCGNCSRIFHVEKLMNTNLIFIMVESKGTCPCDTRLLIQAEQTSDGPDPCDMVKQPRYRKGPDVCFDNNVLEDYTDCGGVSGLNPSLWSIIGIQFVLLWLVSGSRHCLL
Chain of rabbit CaV1.2 α1-subunit with β2a and α2-δ1 (P15381 whole entry, other chains not shown): as the sequence (P15381 whole entry, other chains not shown, the tested form may be a part) above
Chain of rabbit CaV1.2 α1-subunit with β2a and α2-δ1 (P13806 27-960 partner limits assumed, other chains not shown): as the sequence (P13806 27-960 partner limits assumed, other chains not shown) above
Chain of rabbit CaV1.2 α1-subunit with β2a and α2-δ1 (P13806 961-1106 partner limits assumed, other chains not shown): as the sequence (P13806 961-1106 partner limits assumed, other chains not shown) above
Chain of hERG channels (Q12809 whole entry): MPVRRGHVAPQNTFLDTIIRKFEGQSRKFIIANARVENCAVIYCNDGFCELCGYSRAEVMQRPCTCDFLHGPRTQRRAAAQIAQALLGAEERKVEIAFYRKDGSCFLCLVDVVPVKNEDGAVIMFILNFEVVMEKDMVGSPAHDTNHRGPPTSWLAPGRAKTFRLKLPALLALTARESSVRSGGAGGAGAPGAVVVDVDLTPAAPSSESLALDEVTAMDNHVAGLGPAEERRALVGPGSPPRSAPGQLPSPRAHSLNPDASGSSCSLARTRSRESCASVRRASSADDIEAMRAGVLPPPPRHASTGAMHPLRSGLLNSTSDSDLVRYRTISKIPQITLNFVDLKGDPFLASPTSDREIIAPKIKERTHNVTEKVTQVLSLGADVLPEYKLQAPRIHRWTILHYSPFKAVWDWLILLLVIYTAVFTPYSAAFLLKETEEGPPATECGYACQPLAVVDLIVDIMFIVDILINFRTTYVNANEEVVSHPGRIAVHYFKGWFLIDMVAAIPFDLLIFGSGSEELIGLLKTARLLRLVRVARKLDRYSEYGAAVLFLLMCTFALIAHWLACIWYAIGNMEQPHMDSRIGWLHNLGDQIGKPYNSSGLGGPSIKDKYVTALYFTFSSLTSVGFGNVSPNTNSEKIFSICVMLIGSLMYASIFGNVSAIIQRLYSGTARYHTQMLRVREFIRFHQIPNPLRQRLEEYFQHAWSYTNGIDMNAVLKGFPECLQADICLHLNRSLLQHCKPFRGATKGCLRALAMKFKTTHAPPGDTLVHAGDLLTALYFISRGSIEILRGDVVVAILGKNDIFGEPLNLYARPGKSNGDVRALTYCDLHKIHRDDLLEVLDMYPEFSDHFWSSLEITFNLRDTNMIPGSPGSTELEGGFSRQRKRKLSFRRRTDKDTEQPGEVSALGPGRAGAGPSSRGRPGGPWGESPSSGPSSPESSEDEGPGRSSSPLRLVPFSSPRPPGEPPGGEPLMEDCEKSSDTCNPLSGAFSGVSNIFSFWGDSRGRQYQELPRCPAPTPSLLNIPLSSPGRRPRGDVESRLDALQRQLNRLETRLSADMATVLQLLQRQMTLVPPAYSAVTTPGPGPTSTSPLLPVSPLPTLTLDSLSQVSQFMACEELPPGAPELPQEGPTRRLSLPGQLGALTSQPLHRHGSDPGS

In the case of `COc1ccc(OCCN(C)CCc2ccccc2)cc1` [Dofe42], in data set [1], the activity at 0.01 µM amounted to 113%, the activity at 0.1 µM came out at 92%, the activity at 0.3 µM came to 95% and the activity at 1 µM worked out at 98%. For the same compound, in data set [1], the EC (50% APD prolongation) is over 0.6 µM. Moreover, the “Effect on APD90 / AP prolongation (in words)” value in data set [1] (hiPSC-CMs) is recorded as “did not affect APD90 even at 1 μM; also recorded: did not induce prolongation of AP”. Further, in data set [2], inhibition was half-maximal at 0.213 ± 0.0835 µM (IC50). Moreover, the concentration for half-maximal inhibition (IC50) in data set [3] (pH 7.4, Cav1.2 IC50 (peak IBa inhibition), 0.2 Hz, 50 ms pulses from -80 to +10 mV) was determined as 38 ± 9.3 µM. Further, in data set [4] (100 μM), the “Peak current decay after 20 pulses at 1 Hz (use-dependent block)” value was found to be 38 ± 2%. Besides, the “Resting state and use-dependent block of Cav1.2” value in data set [4] was “pronounced resting state block and additional use‐dependent block”. For the same compound, the “Shift of Nav1.5 concentration-response curve towards lower concentrations” value in data set [5] worked out at 5.6 fold. In data set [5] (setting [7]), this compound came in with a 50% inhibitory concentration (IC50) of 13.8 ± 1.9 µM. The same compound yielded an IC50 in data set [5] (setting [8]) of 77.9 ± 9.7 µM. Moreover, the Ki in data set [6] is 0.0033 ± 0.002 µM.

For `CN(CCOc1ccc(Cl)c(Cl)c1)CCc1ccccc1` [Dofe44], in data set [1], the activity at 0.01 µM stood at 90%, the activity at 0.1 µM worked out at 83%, the activity at 0.3 µM was 87% and the activity at 1 µM is 92%. The EC (50% APD prolongation) in data set [1] was over 0.6 µM. For the same compound, in data set [1] (hiPSC-CMs), the “Effect on APD90 / AP prolongation (in words)” value is “did not affect APD90 even at 1 μM; also recorded: did not induce prolongation of AP”. Further, in data set [2], inhibition was half-maximal at 0.0381 ± 0.0126 µM (IC50). The compound further returned an IC50 in data set [3] (setting [9]) of over 100 µM. Also, in data set [4], the “Resting state and use-dependent block of Cav1.2” value was “No use‐dependent block”; the “Cav1.2 IC50 (peak IBa inhibition)” value is over 200 µM. Besides, the “Shift of Nav1.5 concentration-response curve towards lower concentrations” value in data set [5] is “fivefold”. This compound also gave an IC50 in data set [5] (setting [7]) of 4.7 ± 2 µM. This compound returned an IC50 in data set [5] (setting [8]) of 23.3 ± 1.9 µM. For the same compound, in data set [6], the Ki was 0.0024 ± 0.0022 µM.

As to `CN(CCOc1ccc([N+](=O)[O-])cc1)CCc1ccccc1` [Dofe45], in data set [1], the activity at 0.01 µM came to 71%, the activity at 0.1 µM turned out to be 89%, the activity at 0.3 µM is 95% and the activity at 1 µM amounted to 215%. In addition, in data set [1], the EC (50% APD prolongation) came to 0.538 µM. In data set [1] (hiPSC-CMs), the “Effect on APD90 / AP prolongation (in words)” value is listed as “only slightly prolonged the AP; also recorded: slightly prolonged the AP at high concentrations” and the “Incidence of EADs” value was “without (if any) incidence of EADs”. This compound also came in with an IC50 in data set [3] (setting [9]) of 0.19 ± 0.003 µM. In data set [3] (pH 7.4, Cav1.2 IC50 used for AP simulation), half-maximal inhibition (IC50) required 0.2 µM. In data set [4] (100 nM), the “Peak current decay after 20 pulses at 1 Hz (use-dependent block)” value was 42 ± 6%. Moreover, in data set [4], the “Resting state and use-dependent block of Cav1.2” value is “pronounced resting state block and additional use‐dependent block”; the “Cav1.2 IC50 (peak IBa inhibition)” value amounted to 0.192 ± 0.028 µM. The same compound registered a half-maximal inhibitory concentration (IC50) in data set [5] (setting [8]) of 69.7 ± 1 µM. For the same compound, in data set [5] (Nav1.5 IC50 used for AP simulation, value entered in in silico hiPSC-CM AP model (Figure 8C)), the IC50 was 8.9 µM and 10 µM. For the same compound, in data set [5] (human, pH 7.4, Nav1.5 IC50 (peak INa inhibition)), the IC50 worked out at 6.4 ± 1 µM.

The term IC50 denotes the concentration that gives 50% inhibition. As a reminder, the Ki is the dissociation constant of the complex between target and ligand, obtained from inhibition or displacement.

(Values after publication PMC5573420, “Correlation between human ether‐a‐go‐go‐related gene channel inhibition and action potential prolongation” (British Journal of Pharmacology, 2017).)
